The subject of assay [1] is HIV-1IIIB. Nature of the assay: HIV-1 antiviral assay in CEM-SS cells (MTS readout). The class given is cell-based.
Assay [2] has as its system HCMV strain AD169. Nature of the assay: HCMV plaque formation assay in MRC-5 cells. The class given is cell-based.
Assay [3] concerns hepatitis B virus (HBV) ayw strain in HepG2-2.2.15 cells. Nature of the assay: HBV experimental assay system, secreted HBV DNA by TaqMan PCR. The class given is cell-based. To be noted: single peptide, 10 micrograms per ml; HepG2-2.2.15, six days.
Method: HepG2-2.2.15 is a stable cell line containing the hepatitis B virus (HBV) ayw strain genome (ATCC Cat. No. CRL-11997). […] After 16-24 hours the confluent monolayer of HepG2-2.2.15 cells was washed and the medium was replaced with complete medium containing test peptides—10 micrograms per ml—in duplicate. […] Three days later the culture medium was replaced with fresh medium containing the peptides. Six days following the initial administration of the peptides, the cell culture supernatants was collected, treated with pronase and DNAse and then used in a real-time quantitative TaqMan PCR assay. The PCR-amplified HBV DNA was detected in real-time by monitoring increases in fluorescence signals that result from the exonucleolytic degradation of a quenched fluorescence probe molecule that hybridizes to the amplified HBV DNA. For each PCR amplification, a standard curve was simultaneously generated using dilutions of purified HBV DNA. Antiviral activity was calculated from the reduction in HBV DNA levels (% virus control).
The test system of assay [4] is Primary Human endothelial cells (HUVEC). Nature of the assay: Endothelial cell migration assay. Type of assay: cell-based. To be noted: single peptide, 10 micrograms per ml, 22 hours.
Assay [5] has as its system HUVEC. As to the kind of experiment: Endothelial tube formation assay. The class given is cell-based, human. Conditions: single peptide, 10 micrograms per ml, 20 hours.
Method: The endothelial tube formation assay is based on the ability of endothelial cells to form three-dimensional capillary-like tubular structures when cultured on a gel of basement membrane extract. […] Pre-labeled HUVEC with Calcein AM were seeded in a 96-well culture plate coated with extracellular metrix (Chemicon international Cat. ECM625) and treated with test peptides—10 micrograms per ml—in full growth medium. Positive control was vehicle only. The endothelial cells were allowed to form tubes foe 20 hours and were then examined under an inverted fluorescent microscope. Duplicate wells for each treatment were photographed and quantitatevily analyzed for an average tubule length using image analysis software ImageProPlus. Raw data were expressed as average tubule lenghs in pixels ± standard deviation. Statistic p values were computed using the Student's t-test.
Assay [6] concerns spleen cells. Nature of the assay: Th1/Th2 cytokine profiling assay. The class given is cell-based, Balb/c mice. To be noted: 10 micrograms per ml; Ovalbumin restimulation, 72 hours.

No end group written: not given here.

`Cc1cn([C@H]2C[C@H](N=[N+]=[N-])[C@@H](CO)O2)c(=O)[nH]c1=O` [AZT]: the “antiviral activity of positive control compounds (HIV-1)” value in assay [1] is “expected levels of antiviral activity”.
`Nc1nc(O)c2ncn(COC(CO)CO)c2n1` [Ganciclovir, reference compound]: the “antiviral activity of positive control compound (HCMV)” value in assay [2] (HCMV AD169) was “expected levels of antiviral activity”.
Turning to `CC(C)(C)NC(=O)[C@@H]1CN(Cc2cccnc2)CCN1C[C@@H](O)C[C@@H](Cc1ccccc1)C(=O)N[C@H]1c2ccccc2C[C@H]1O` [indinavir], in assay [1], the “antiviral activity of positive control compounds (HIV-1)” value is recorded as “expected levels of antiviral activity”.
With “His-Asp-Glu-Phe-Glu-Arg-His-Ala-Glu-Gly-Thr-Phe-Thr-Ser-Asp-Val-Ser-Ser-Tyr-Leu-Glu-Gly-Gln-Ala-Ala-Lys-Glu-Phe-Ile-Ala-Trp-Leu-Val-Lys-Gly-Arg-Gly-OH (HDEFERHAEGTFTSDVSSYLEGQAAKEFIAWLVKGRG-OH; listed as Homo sapiens) [Peptide 2, commercially available known peptide]”, the “inhibition of HBV replication as compared to the virus control infection” value in assay [3] came to 62.3%. For the same compound, the “inhibition of HCMV plaque formation as compared to the virus control” value in assay [2] (10 micrograms per ml, 7-10 days) is listed as “did not inhibit”. The “inhibition of the migration of human endothelial cells” value in assay [4] was found to be 65%. Further, the “inhibition of the tube formation of human endothelial cells” value in assay [5] is reported as 25%. Moreover, in assay [6], the “IFNγ spleen cells; TH1 response (% of control)” value is on record as 78.0 % of control, the “IL-2 spleen cells (% of control)” value is 163.4 % of control, the “IL-4 spleen cells; TH2 response (% of control)” value was 135.2 % of control and the “IL-5 spleen cells; TH2 response (% of control)” value is 121.7 % of control. In assay [6], the “TNF-a spleen cells; TH1 response (% of control)” value is 145.1 % of control.

(Values after patent US8193149B2, “Use of Peptide YY, alone or in combination with glucagon-like peptide, for use in medicine” (mondoBIOTECH Laboratories AG, priority 2007, dated 2012).)
